From patent EP1036783B1 (MERCK & CO. INC., priority 1999, dated 2000) come the findings set out here.

Data set [1] deals with HMG-CoA reductase. The following applies: human, in vivo.
In data set [2] the test system is HMG-CoA reductase. The following applies: following intraduodenal administration of dihydroxy open acid simvastatin.
The next data set in a line: clinical. The following applies: human, in vivo.

On to `CCC(C)(C)C(=O)O[C@H]1C[C@@H](C)C=C2C=C[C@H](C)[C@H](CC[C@@H](O)C[C@@H](O)CC(=O)O)[C@H]21` [SVA, dihydroxy open acid simvastatin], for which, in the data set with HMG-CoA reductase [1], the “Cmax, Active Inhibitors” value is 5.7 = 3.0 ng eq/mL. Also, the “Tmax, Active HMG-CoA reductase inhibitors” value with HMG-CoA reductase [1] is 3.6 (2.5) hr. In the data set on HMG-CoA reductase [1], the “change by itraconazole pre-treatment in AUC and Cmax of HMG-CoA reductase inhibitory activity (total or active)” value is 1.3-1.5 fold. Besides, the “lactonization of dihydroxy open acid simvastatin or its active metabolites” value in the data set on HMG-CoA reductase [2] was “occurred minimally”. For the same molecule, the “effect of itraconazole measured as the unchanged drug” value in the data set “clinical” amounted to 1.5 fold. Moreover, the Tmax in the data set “clinical” (SVA in plasma) came to 4.1 h; in the data set “clinical” (Simyastatin Acid in plasma) it was 4.1 ± 2.1 h. In addition, the half-life is 6.7 h in “clinical” (t1/2, SV in plasma); 2.3 h in the data set “clinical” (t1/2, SVA in plasma); 2.3 ± 0.5 h in “clinical” (t1/2, Simyastatin Acid in plasma).
